# From patent US12630498B2 (Genzyme Corporation, priority 2019, dated 2026)
# Target: T1, human Cystic Fibrosis Transmembrane Conductance Regulator (CFTR) harboring the ΔF508 mutation (Homo sapiens, UniProt P13569, DEL508-508)
# T1 construct: expressed in transfected cells; host or cells: H441 carcinoma line (G418-selected)
# Assay: H441 cell ΔF508-CFTR-HRP cell surface assay (Emax and EC50)
# Format: cell-based
# Conditions: for Emax: NCI-H441, NA = Not active
# Text: Example 315: H441 Cell Emax and EC50 Two cell lines were used, the H441 carcinoma line and the CFHBE41o- (41o-) human bronchial epithelial line. Both cell lines expressed human Cystic Fibrosis Transmembrane Conductance Regulator (CFTR) harboring the ΔF508 mutation and with an in-frame fusion in CFTR extracellular loop 4 of Horse Radish Peroxidase (HRP) under control of the CMV promoter. In the presence of the HRP tag, ΔF508-CFTR transported to the cell surface was detectable upon addition of an HRP substrate (Luminata Forte). Both cell types were cultivated at 37° C. with CO2. […] For both cell types, the medium was changed every other day unless the culture was at low % confluence. Cells were used for the assays at 75% confluence. To a polypropylene (PP) 384-well plate, 15 pls DMSO was added to all wells in columns 1-22 and 24 (low Control). 15 μls of 260 μM VX809 (Lumacaftor), Selleckchem […], was added to column 23 wells (high Control). 15 pls of 10 mM test compound or VX809 (control) were added to wells of row A. Serial dilutions of Row A compound were performed 2×15 pls in rows A through 0 (15-point). A PP, 384-well plate containing the appropriate cell culture medium was prepared for each assay plate with 100 pls per well. For the doxycycline-induced 41o-cells, doxycycline for both the assay plate and the medium dilution plate was added at 0.0005 mg/ml to the medium. Both cell lines were plated for the assay at 30 pls per 384-well at 3.4×10 e^5 cells per ml ( 10K cells/well). H441 cells were plated on opaque, white, Corning plate 3704. 41o-cells were plated on collagen-coated opaque, white, Corning plate 356665. For 41o-cells, doxycycline was added to the medium. Using FX (Beckman) protocol, 10 pls diluted compound or medium was added per well to the Assay Plate as: 2 pls DMSO Dilution plate well was diluted in 100 pls of the Medium Dilution Plate well, mixed, and 10 pls was transferred to the Assay Plate. The final assay dilution series was 24.5, 12.3, 6.1, 3.1, 1.5, 0.8, 0.4, 0.2, 0.1, 0.05, 0.02, 0.01, 0.006, 0.003, 0.001 and 0 μM. The 41o-assay plates were incubated at 37° C. w/CO2, the H441 assay plates were incubated at 27° C. w/CO2, each overnight for two nights. After being brought to room temperature, the assay plate liquid was removed. 30 uls of Luminata Forte (Millipore ELLUF0100) was added per well and incubated at room temperature for 10 min. The plates were then read on a Topcount, protocol LumiMatti (CPS, luminescence). The data was analyzed for % of maximum, maximum VX809 signal, and EC50 using Pearl and SPEED tools.
# T1 sequence (P13569 with tags, fused parts or gaps DEL508-508): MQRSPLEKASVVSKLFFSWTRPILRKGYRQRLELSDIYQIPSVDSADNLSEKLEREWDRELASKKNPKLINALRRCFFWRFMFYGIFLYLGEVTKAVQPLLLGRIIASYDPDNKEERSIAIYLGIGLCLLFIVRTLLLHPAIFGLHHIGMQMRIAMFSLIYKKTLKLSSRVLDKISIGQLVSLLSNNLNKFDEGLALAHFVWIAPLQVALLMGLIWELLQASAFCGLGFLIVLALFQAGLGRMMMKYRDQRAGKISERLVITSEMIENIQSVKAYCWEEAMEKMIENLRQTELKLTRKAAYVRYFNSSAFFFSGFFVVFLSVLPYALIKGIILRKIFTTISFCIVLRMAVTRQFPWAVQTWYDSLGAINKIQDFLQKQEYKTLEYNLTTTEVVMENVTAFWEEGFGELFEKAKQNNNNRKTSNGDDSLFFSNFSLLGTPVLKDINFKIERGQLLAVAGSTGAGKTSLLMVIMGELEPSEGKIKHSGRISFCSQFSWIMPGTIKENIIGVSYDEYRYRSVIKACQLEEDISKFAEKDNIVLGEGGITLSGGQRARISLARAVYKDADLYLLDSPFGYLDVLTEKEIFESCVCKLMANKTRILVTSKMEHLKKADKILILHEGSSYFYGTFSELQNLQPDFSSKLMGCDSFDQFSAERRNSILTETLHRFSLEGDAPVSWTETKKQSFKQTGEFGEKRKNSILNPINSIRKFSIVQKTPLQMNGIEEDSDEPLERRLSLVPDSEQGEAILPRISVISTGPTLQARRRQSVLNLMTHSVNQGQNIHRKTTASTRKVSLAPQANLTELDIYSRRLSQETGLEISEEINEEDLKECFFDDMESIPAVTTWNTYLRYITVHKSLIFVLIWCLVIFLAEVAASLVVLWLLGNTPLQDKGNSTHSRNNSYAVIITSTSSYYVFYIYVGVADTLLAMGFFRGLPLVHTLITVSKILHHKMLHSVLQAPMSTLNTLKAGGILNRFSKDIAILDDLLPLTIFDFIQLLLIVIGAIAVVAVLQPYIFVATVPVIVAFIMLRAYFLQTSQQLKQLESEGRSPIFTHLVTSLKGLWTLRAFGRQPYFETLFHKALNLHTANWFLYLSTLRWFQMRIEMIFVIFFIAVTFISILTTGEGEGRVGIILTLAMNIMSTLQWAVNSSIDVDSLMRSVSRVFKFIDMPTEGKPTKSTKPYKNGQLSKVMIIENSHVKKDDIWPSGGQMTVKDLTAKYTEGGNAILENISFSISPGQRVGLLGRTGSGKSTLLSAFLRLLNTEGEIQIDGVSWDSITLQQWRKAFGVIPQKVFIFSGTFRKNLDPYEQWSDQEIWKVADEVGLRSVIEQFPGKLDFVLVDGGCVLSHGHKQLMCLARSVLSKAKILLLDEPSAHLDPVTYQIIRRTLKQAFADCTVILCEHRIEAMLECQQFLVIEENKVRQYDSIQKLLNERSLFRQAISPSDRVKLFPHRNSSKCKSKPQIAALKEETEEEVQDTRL
Compound,EC50 [µM],Emax [%]
"CC(C)C#CCOc1c(C(=O)N[C@H](C(=O)O)C(C)(C)C)ccc2ccccc12 [Example 235, (2S)-3,3-dimethyl-2-[[1-(4-methylpent-2-ynoxy)naphthalene-2-carbonyl]amino]butanoic Acid]",15.2,211
"CC(OCc1ccccc1)[C@H](NC(=O)c1ccc2cc(F)ccc2c1OCc1ccc(OC(F)(F)F)cc1)C(=O)O (stereo in doubt) [Example 192, O-benzyl-N-(6-fluoro-1-((4-(trifluoromethoxy)benzyl)oxy)-2-naphthoyl)-L-allothreonine]",,10.6
"COCC[C@H](NC(=O)c1ccc2ccccc2c1OCc1ccc(C(F)(F)F)cc1)C(=O)O [Example 137, O-methyl-N-(1-((4-(trifluoromethyl)benzyl)oxy)-2-naphthoyl)-L-homoserine]",16.4,38.4
"C[C@@H](OCc1ccccc1)C(NC(=O)c1ccc2ccccc2c1OCC1CCC(CO)CC1)C(=O)O (stereo partly drawn) [Example 146, (3R)-3-(benzyloxy)-2-(1-((4-(hydroxymethyl)cyclohexyl)methoxy)-2-naphthamido)butanoic Acid]",17.4,62.2
"NC12CCC(C(NC(=O)c3ccc4cc(F)ccc4c3OCc3ccc(OC(F)(F)F)cc3)C(=O)O)(CC1)CC2 (stereo not drawn) [Example 184, 2-(4-aminobicyclo[2.2.2]octan-1-yl)-2-(6-fluoro-1-((4-(trifluoromethoxy)benzyl)oxy)-2-naphthamido)acetic Acid]",,11.7
"O=C(N[C@@H](Cc1ccccc1)C(=O)O)c1ccc2ccccc2c1OCc1ccc([N+](=O)[O-])cc1 [Example 91, (1-((4-nitrobenzyl)oxy)-2-naphthoyl)-L-phenylalanine]",16.4,44.3
"CC(C)(SCC1CC1(F)F)[C@H](NC(=O)c1ccc2ccccc2c1OCc1ccc(S(C)(=O)=O)cc1)C(=O)O (stereo partly drawn) [Example 166, (2R)-3-(((2,2-difluorocyclopropyl)methyl)thio)-3-methyl-2-(1-((4-(methylsulfonyl)benzyl)oxy)-2-naphthamido)butanoic Acid]",,6.6
"CC(C)(C)C[C@H](NC(=O)c1ccc2ccccc2c1OCc1ccc(OC(F)F)cc1)C(=O)O [Example 108, (S)-2-(1-((4-(difluoromethoxy)benzyl)oxy)-2-naphthamido)-4,4-dimethylpentanoic Acid]",,4.7
"CC(C)(C)[C@H](NC(=O)c1ccc2ccccc2c1OCC1(C(F)(F)F)CC1)C(=O)O [Example 268, (2S)-3,3-dimethyl-2-[[1-[[1-(trifluoromethyl)cyclopropyl]methoxy]naphthalene-2-carbonyl]amino]butanoic Acid]",15.4,74
"CC(C)(C)OC(=O)C[C@H](NC(=O)c1ccc2ccccc2c1OCc1ccc(C(F)(F)F)cc1)C(=O)O (stereo in doubt) [Example 151, 4-(tert-butoxy)-4-oxo-2-(1-((4-(trifluoromethyl)benzyl)oxy)-2-naphthamido)butanoic Acid]",13.4,68.7
"N#Cc1ccc(C[C@H](NC(=O)c2ccc3ccccc3c2OCc2ccc(C(F)(F)F)cc2)C(=O)O)cc1 [Example 107, (S)-3-(4-cyanophenyl)-2-(1-((4-(trifluoromethyl)benzyl)oxy)-2-naphthamido)propanoic Acid]",10.9,63.4

# Second part, the compound after the results:
EC50 [µM],Emax [%],Compound
0.2,392,"CCC(C)(C)[C@H](NC(=O)c1ccc2c(F)cc(C)cc2c1OCc1ccc(C(F)(F)F)cc1)C(=O)O [Example 272, (2S)-2-[[5-fluoro-7-methyl-1-[[4-(trifluoromethyl)phenyl]methoxy]-naphthalene-2-carbonyl]amino]-3,3-dimethyl-pentanoic Acid]"
2.7,46.6,"CC(C)(C)C[C@H](NC(=O)c1ccc2cc(N)ccc2c1OCc1ccc(C(F)(F)F)cc1)C(=O)O [Example 186, (S)-2-(6-amino-1-((4-(trifluoromethyl)benzyl)oxy)-2-naphthamido)-4,4-dimethylpentanoic Acid]"
0.3,327,"CC(C)(C)[C@H](NC(=O)c1ccc2ccc(C(F)(F)F)cc2c1OCc1ccc(C(F)(F)F)cc1)C(=O)O [compound 293, (S)-3,3-dimethyl-2-(7-(trifluoromethyl)-1-((4-(trifluoromethyl)benzyl)oxy)-2-naphthamido)butanoic Acid]"
0.1,339,"CCC(C)(C)[C@H](NC(=O)c1ccc2c(F)cc(C)cc2c1OCc1ccc(OC(F)(F)F)cc1)C(=O)O [Example 273, (2S)-2-[[5-fluoro-7-methyl-1-[[4-(trifluoromethoxy)phenyl]methoxy]naphthalene-2-carbonyl]amino]-3,3-dimethyl-pentanoic Acid]"
4.7,93.5,"CO[C@@H](C)[C@H](NC(=O)c1ccc2ccccc2c1OCc1ccc(C(F)(F)F)cc1)C(=O)O [Example 135, O-methyl-N-(1-((4-(trifluoromethyl)benzyl)oxy)-2-naphthoyl)-L-allothreonine]"
4,31.4,"O=C(NC(C(=O)O)C(C(F)(F)F)C(F)(F)F)c1ccc2cc(F)ccc2c1OCc1ccc(C(F)(F)F)cc1 (stereo not drawn) [Example 182, 4,4,4-trifluoro-2-(6-fluoro-1-((4-(trifluoromethyl)benzyl)oxy)-2-naphthamido)-3-(trifluoromethyl)butanoic Acid]"
3.7,58.2,"O=C(N[C@H](C(=O)O)C1CCCC1)c1ccc2cc(F)ccc2c1OCc1ccc(S(F)(F)(F)(F)F)cc1 [Example 113, (S)-2-cyclopentyl-2-(6-fluoro-1-((4-(pentafluoro-16-sulfanyl)benzyl)oxy)-2-naphthamido)acetic Acid]"
1.5,44.3,"CCC(C)(C)[C@H](NC(=O)c1ccc2cc(OC)ccc2c1OCc1ccc(SC(F)(F)F)cc1)C(=O)O [Example 32, (S)-2-(6-methoxy-1-((4-((trifluoromethyl)thio)benzyl)oxy)-2-naphthamido)-3,3-dimethylpentanoic Acid]"
2.1,103,"O=C(N[C@@H](Cc1ccccc1)C(=O)O)c1ccc2ccccc2c1OCc1ccc(C(F)(F)F)cc1 [Example 87, (1-((4-(trifluoromethyl)benzyl)oxy)-2-naphthoyl)-L-phenylalanine]"
3.3,47.2,"COc1ccc2c(OCc3ccc(C(F)(F)F)cc3)c(C(=O)N[C@H](C(=O)O)C3CCCC3)ccc2c1 [Example 160, (S)-2-cyclopentyl-2-(6-methoxy-1-((4-(trifluoromethyl)benzyl)oxy)-2-naphthamido)acetic Acid]"
6.7,22.8,"CS(=O)(=O)c1ccc(COc2c(C(=O)N[C@H](C(=O)O)C3CCCC3)ccc3ccccc23)cc1 [Example 159, (S)-2-cyclopentyl-2-(1-((4-(methylsulfonyl)benzyl)oxy)-2-naphthamido)acetic Acid]"
1.9,51.7,"O=C(N[C@H](C(=O)O)C1CCCC1)c1ccc2ccccc2c1OCc1ccc(S(=O)(=O)C(F)(F)F)cc1 [Example 156, (S)-2-cyclopentyl-2-(1-((4-((trifluoromethyl)sulfonyl)benzyl)oxy)-2-naphthamido)acetic Acid]"
2.2,18.1,"O=C(N[C@H](C(=O)O)C12CC(C(F)(F)F)(C1)C2)c1ccc2ccccc2c1OCc1ccc(S(=O)(=O)C(F)(F)F)cc1 [Example 3, (S)-2-(3-(trifluoromethyl)bicyclo[1.1.1]pentan-1-yl)-2-(1-((4-((trifluoromethyl)sulfonyl)benzyl)oxy)-2-naphthamido)acetic Acid]"
2.8,71,"COC(C)(C)[C@H](NC(=O)c1ccc2cc(F)ccc2c1OCc1ccc(SC(F)(F)F)cc1)C(=O)O [Example 118, (S)-2-(6-fluoro-1-((4-((trifluoromethyl)thio)benzyl)oxy)-2-naphthamido)-3-methoxy-3-methylbutanoic Acid]"
3.1,8.5,"CC(C)(C)[C@H](NC(=O)c1ccc2ccccc2c1OCc1ccncc1)C(=O)O [Example 232, (2S)-3,3-dimethyl-2-[[1-(4-pyridylmethoxy)naphthalene-2-carbonyl]amino]butanoic Acid]"
